These results are taken from patent publication US9776965B2, “Pyrrolidin-2-one and piperidin-2-one derivatives as 11-beta hydroxysteroid dehydrogenase inhibitors” (Janssen Pharmaceutica N.V., priority 2004, dated 2017).

The target of experiment [1] is 11b-HSD1 (Homo sapiens, UniProt P28845). The experiment is described as follows: Enzymatic assay, 11b-HSD1 dependent conversion of cortisone into cortisol (reductase activity). The conditions noted are these: recombinant protein, 2 μM cortisone, 45 min at 37 C; read-out: [C1] HSD1-prot Reduct Score. The experiment is classed as biochemical. As to the method:
The effects of compounds on 11b-HSD1 dependent conversion of cortisone into cortisol (reductase activity) was studied in a reaction mixture containing 30 mM Tris-HCl buffer pH 7.2, 180 μM NADPH, 1 mM EDTA, 2 μM cortisone, 1 μl drug and/or solvent and 11 μg recombinant protein in a final volume of 100 μl.
All incubations were performed for 45 min at 37 C in a water bath. The reaction was stopped by adding 100 μl acetonitrile containing 20 μg corticosterone as internal standard. After centrifugation, the product formation was analysed in the supernatant by HPLC on a Hypersyl BDS-C18 column using 0.05 mM ammonium acetate/methanol (50/50) as solvent. In all of the aforementioned assays, the drugs to be tested were taken from a stock solution and tested at a final concentration ranging from […] to 3.10^−9M. From the thus obtained dose response curves, the pIC50 value was calculated and scored as follows; Score 1=pIC50 value<5, Score 2=pIC50 value in the range of 5 to 6, Score 3=pIC50 value>6. (in this table NT stands for Not Tested).

In experiment [2] the target is T1, 11b-HSD1 (Mus musculus, UniProt P50172).
T1 construct: Fibroblasts were differentiated into adipocytes; endogenous in cells; host or cells: differentiated 3T3-L1 cells (ATCC-CL-173)
T1 sequence (P50172 whole entry): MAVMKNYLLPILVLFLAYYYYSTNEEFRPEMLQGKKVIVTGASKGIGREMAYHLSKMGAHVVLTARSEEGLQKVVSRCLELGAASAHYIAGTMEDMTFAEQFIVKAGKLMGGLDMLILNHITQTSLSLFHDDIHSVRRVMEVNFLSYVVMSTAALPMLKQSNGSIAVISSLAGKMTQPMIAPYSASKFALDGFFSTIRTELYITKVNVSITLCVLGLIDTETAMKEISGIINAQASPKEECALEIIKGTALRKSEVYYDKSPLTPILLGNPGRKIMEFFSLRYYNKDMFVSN
The experiment is described as follows: Cellular assay, 11b-HSD1 activity in differentiated 3T3-L1 cells. In kind it is cell-based. The conditions noted are these: 4 hour pre-incubation; for IC50: read-out: [C2] HSD1 cellular 3T3-L1 Score. As to the method:
The effects on 11b-HSD1 activity was measured in differentiated 3T3-L1 cells and rat hepatocytes.
Mouse fibroblast 3T3-L1 cells (ATCC-CL-173) were seeded at a density of 16500 cells/ml in 12 well plates and grown for 7 days in DMEM medium (supplemented with 10% heat inactivated foetal calf serum, 2 mM glutamine and 25 mg gentamycin) at 37 C in a humidified 5% CO2 atmosphere. Medium was refreshed twice a week. Fibroblasts were differentiated into adipocytes at 37 C in a 5% CO2 humidified atmosphere in growth medium containing 2 μg/ml insulin, 55 μg/ml IBMX and 39.2 μg/ml dexamethasone.
Following a 4 hour pre-incubation with test compound, 0.5 μCi ^3H-cortisone or dehydrocorticosterone, was added to the cultures. One hour later, the medium was extracted on Extrelut^3-columns with 15 ml diethyl ether and the extract was analysed by HPLC as described above.
As for the enzymatic assays, the compounds to be tested were taken from a stock solution and tested at a final concentration ranging from […] to 3.10^−9M. From the thus obtained dose response curves, the pIC50 value was calculated and scored as follows; Score 1=pIC50 value<5, Score 2=pIC50 value in the range of 5 to 6, Score 3=pIC50 value>6. Some of the thus obtained results are summarized in the table below (in this table NT stands for Not Tested).

Chain of 11b-HSD1 (Homo sapiens, UniProt P28845) (P28845 whole entry): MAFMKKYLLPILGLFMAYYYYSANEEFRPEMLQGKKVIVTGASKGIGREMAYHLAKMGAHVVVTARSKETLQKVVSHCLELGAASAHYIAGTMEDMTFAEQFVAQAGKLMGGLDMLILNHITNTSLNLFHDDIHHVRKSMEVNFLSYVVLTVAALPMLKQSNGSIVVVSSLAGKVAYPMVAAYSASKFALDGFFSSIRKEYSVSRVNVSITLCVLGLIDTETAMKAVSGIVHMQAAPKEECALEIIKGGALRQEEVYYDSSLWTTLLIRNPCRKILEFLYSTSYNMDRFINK

Take `O=C1C(Cc2ccccc2Cl)CCN1CCCc1ccccc1` (stereo not shown) [Compound 111]: the IC50 in experiment [1] and in experiment [2] was 1 to 10 µM in each case.
As for `Cc1cccc(C[C@@H]2CCN([C@@H](C)c3ccccc3)C2=O)c1` [Compound 16], the figures for the IC50 in experiment [1] and in experiment [2] were greater than 10 µM and 1 to 10 µM, respectively.
As for `Cc1ccccc1C[C@@]1(C)CCN([C@@H](C)c2ccccc2)C1=O` [Compound 143], the IC50 is greater than 10 µM in experiment [1] and 1 to 10 µM in experiment [2].
In the same order, the values of `O=C1C(Cc2ccc3c(c2)OCO3)CCN1CCc1ccccc1` (stereo not shown) [Compound 89] are greater than 10 µM and 1 to 10 µM.
Take `COc1cccc(C[C@H]2CCN([C@H](C)c3ccccc3)C2=O)c1` [Compound 66]: the IC50 is greater than 10 µM in experiment [1] and 1 to 10 µM in experiment [2].
For the compound `O=C1C(Cc2cccc(O)c2)CCN1Cc1ccccc1` (stereo not shown) [Compound 53], the values for the IC50 in experiment [1] and in experiment [2] were greater than 10 µM and 1 to 10 µM, respectively.
`O=C1C(Cc2cccc(Cl)c2Cl)CCN1Cc1ccccc1` (stereo not shown) [Compound 58]: the IC50 in experiment [1] and in experiment [2] was 1 to 10 µM each time.
Turning to `O=C1C(Cc2c(Cl)cccc2Cl)CCN1CCc1ccc(F)cc1` (stereo not shown) [Compound 81], the IC50 in experiment [1] was greater than 10 µM. The “[C2] HSD1 cellular 3T3-L1 Score” value in experiment [2] was 3 (Score 3=pIC50 value>6).
For the compound `C[C@H](c1ccccc1)N1CC[C@H](Cc2cccc(Cl)c2Cl)C1=O` [Compound 43], the IC50 in experiment [1] and in experiment [2] was 1 to 10 µM each time.
As for `O=C1C(Cc2ccc(F)cc2Cl)CCCN1CCc1ccccc1` (stereo not shown) [Compound 88], the IC50 in experiment [1] and in experiment [2] was 1 to 10 µM in each case.
On to `COc1ccc(C[C@@H]2CCN([C@H](C)c3ccccc3)C2=O)cc1` [Compound 50], for which the IC50 in experiment [1] is greater than 10 µM; in experiment [2], 1 to 10 µM.
As to `C[C@@H](c1ccccc1)N1CC[C@H](Cc2ccc(F)cc2Cl)C1=O` [Compound 150], the IC50 in experiment [1] and in experiment [2] was less than 1 µM throughout.
Take `CC[C@H](c1ccccc1)N1CC[C@H](Cc2c(Cl)cccc2Cl)C1=O` [Compound 96]: the IC50 in experiment [1] was 1 to 10 µM; in experiment [2] it was greater than 10 µM.
For `COc1ccc(CC[C@@H]2CCN([C@@H](C)c3ccccc3)C2=O)cc1` [Compound 132] the same measures were 1 to 10 µM and 1 to 10 µM.
Consider `O=C1C(Cc2c(Cl)cccc2Cl)CCN1[C@@H](Cc1ccccc1)c1ccccc1` (stereo partly shown) [Compound 102], for which the IC50 in experiment [1] and in experiment [2] was greater than 10 µM throughout.
With `C[C@H](c1ccccc1)N1CC[C@@H](Cc2ccccc2C#N)C1=O` [Compound 49], the IC50 was 1 to 10 µM in experiment [1] and less than 1 µM in experiment [2].
For `CC(C)(c1ccccc1)N1CCC(Cc2c(Cl)cccc2Cl)C1=O` (stereo not shown) [Compound 115] the same measures were greater than 10 µM and less than 1 µM.
Consider `O=C1C(Cc2c(Cl)cccc2Cl)CCN1CCc1ccc(Br)cc1` (stereo not shown) [Compound 82], for which the IC50 is less than 1 µM in experiment [1] and 1 to 10 µM in experiment [2].
For `COc1ccccc1C[C@@H]1CCN([C@H](C)c2ccccc2)C1=O` [Compound 38] the same measures were greater than 10 µM and 1 to 10 µM.
As for `C[C@@H](c1ccccc1)N1CC[C@H](CCc2cccc3ccccc23)C1=O` [Compound 75], the IC50 is less than 1 µM in experiment [1] and 1 to 10 µM in experiment [2].
Consider `C[C@H](c1ccccc1)[C@@H]1CCN([C@@H](C)c2ccccc2)C1=O` [Compound 161], for which the IC50 in experiment [1] was 1 to 10 µM; in experiment [2], greater than 10 µM.
For `CO[C@H](C[C@H]1CCN([C@@H](C)c2ccccc2)C1=O)c1ccccc1` [Compound 157] the same measures were 1 to 10 µM and less than 1 µM.
Turning to `C[C@@H](c1ccccc1)N1CC[C@@H](CCc2ccc(N(C)C)cc2)C1=O` [Compound 130], the IC50 in experiment [1] was greater than 10 µM; in experiment [2] it was 1 to 10 µM.
For `C[C@@H](c1ccccc1)N1CC[C@H](CCc2ccccc2)C1=O` [Compound 73] the same measures were less than 1 µM and 1 to 10 µM.
Regarding `C[C@@H](C[C@H]1CCN([C@@H](C)c2ccccc2)C1=O)c1ccccc1` [Compound 135], the IC50 in experiment [1] was greater than 10 µM; in experiment [2] it was less than 1 µM.
For `COC[C@H](c1ccccc1)N1CC[C@@H](Cc2c(Cl)cccc2Cl)C1=O` [Compound 99] the same measures were less than 1 µM and less than 1 µM.
Take `Cc1cccc(CC2CCN(CCc3ccccc3)C2=O)c1` (stereo not shown) [Compound 29]: the IC50 in experiment [1] and in experiment [2] was 1 to 10 µM each time.
`C[C@@H](c1ccccc1)N1CC[C@@H](Cc2ccc3c(c2)OCO3)C1=O` [Compound 153]: the IC50 in experiment [1] and in experiment [2] was 1 to 10 µM each time.
`Cc1cccc(C[C@H]2CCN([C@@H](C)c3ccccc3)C2=O)c1` [Compound 15]: the IC50 in experiment [1] and in experiment [2] was 1 to 10 µM throughout.
As to `COc1ccc(C[C@H]2CCN([C@@H](C)c3ccccc3)C2=O)cc1` [Compound 21], the IC50 in experiment [1] is 1 to 10 µM; in experiment [2], less than 1 µM.
In the same order, the values of `O=C1C(Cc2cc3c(cc2Cl)OCO3)CCN1CCc1ccccc1` (stereo not shown) [Compound 86] are 1 to 10 µM and less than 1 µM.
On to `Cc1ccccc1CC1CCN(Cc2ccccc2)C1=O` (stereo not shown) [Compound 55], for which the figures for the IC50 in experiment [1] and in experiment [2] were greater than 10 µM and 1 to 10 µM, respectively.
Consider `C[C@@H](c1ccccc1)[C@@H]1CCN([C@@H](C)c2ccccc2)C1=O` [Compound 158], for which the IC50 in experiment [1] and in experiment [2] was less than 1 µM in each case.
For `CC[C@H](C[C@H]1CCN([C@@H](C)c2ccccc2)C1=O)c1ccccc1` [Compound 140], the IC50 was greater than 10 µM in experiment [1] and less than 1 µM in experiment [2].
Regarding `C[C@H](c1ccccc1)N1CC[C@@H](Cc2c(Cl)cccc2Cl)C1=O` [Compound 44], the IC50 in experiment [1] is greater than 10 µM; in experiment [2], 1 to 10 µM.
`Cc1ccccc1CC[C@H]1CCN([C@@H](C)c2ccccc2)C1=O` [Compound 128]: the IC50 in experiment [1] and in experiment [2] was 1 to 10 µM in each case.
`Cc1ccccc1CC1(Cc2ccccc2)CCN([C@@H](C)c2ccccc2)C1=O` (mixture of isomers) [Compound 147]: the IC50 in experiment [1] and in experiment [2] was greater than 10 µM throughout.
Regarding `COc1cccc(C[C@@H]2CCN([C@@H](C)c3ccccc3)C2=O)c1` [Compound 20], the IC50 in experiment [1] and in experiment [2] was greater than 10 µM in each case.
Take `Cc1cccc(C)c1CC1CCN(CCc2ccccc2)C1=O` (stereo not shown) [Compound 83]: the IC50 in experiment [1] was less than 1 µM; in experiment [2], greater than 10 µM.
Turning to `Cc1cccc(C)c1CC1CCN(CCCc2ccccc2)C1=O` (stereo not shown) [Compound 113], the IC50 in experiment [1] and in experiment [2] was 1 to 10 µM in each case.
Regarding `Cc1ccc(CC2CCN(Cc3ccccc3)C2=O)cc1` (stereo not shown) [Compound 25], the IC50 is greater than 10 µM in experiment [1] and less than 1 µM in experiment [2].
With `C[C@@H](c1ccccc1)N1CC[C@H](Cc2ccc3c(c2)OCO3)C1=O` [Compound 152], the IC50 was 1 to 10 µM in experiment [1] and less than 1 µM in experiment [2].
For `O=C1C(Cc2c(F)cccc2F)CCN1CCc1ccccc1` (stereo not shown) [Compound 84] the same measures were 1 to 10 µM and less than 1 µM.
Take `C[C@@H](c1ccccc1)N1CC[C@@H](CCc2cccc3ccccc23)C1=O` [Compound 74]: the IC50 in experiment [1] and in experiment [2] was 1 to 10 µM throughout.
Take `C[C@@H](c1ccccc1)N1CC[C@H](Cc2cccc(Cl)c2Cl)C1=O` [Compound 11]: the values for the IC50 in experiment [1] and in experiment [2] were less than 1 µM and 1 to 10 µM, respectively.
In the same order, the values of `C[C@@H](c1ccccc1)N1CC[C@@H](CCc2ccccc2)C1=O` [Compound 72] are greater than 10 µM and 1 to 10 µM.
For `CCC(CC1(CC(CC)c2ccccc2)CCN([C@@H](C)c2ccccc2)C1=O)c1ccccc1` (mixture of isomers) [Compound 165] the same measures were greater than 10 µM and greater than 10 µM.
As for `COc1ccccc1CC[C@H]1CCN([C@@H](C)c2ccccc2)C1=O` [Compound 124], the IC50 in experiment [1] and in experiment [2] was 1 to 10 µM throughout.
Turning to `C[C@H](c1ccccc1)N1CC[C@@H](Cc2cccc(Cl)c2Cl)C1=O` [Compound 42], the results for the IC50 in experiment [1] and in experiment [2] were greater than 10 µM and 1 to 10 µM, respectively.
`C[C@H](c1ccccc1)N1CCC(C)(c2ccccc2)C1=O` (stereo partly shown) [Compound 167]: the IC50 in experiment [2] is greater than 10 µM.
`C[C@@H](c1ccccc1)N1CCC(C)(c2ccccc2)C1=O` (stereo partly shown) [Compound 166]: in experiment [2], the IC50 is 1 to 10 µM.
